Results from publication PMC6694038, “Pharmacogenomic–pharmacokinetic study of selective estrogen-receptor modulators with intra-patient dose escalation in breast cancer” (Breast Cancer (Tokyo, Japan), 2019).
Where two headings read alike, the source gives them in different places.

Tests used:
[1] = Plasma concentrations of TAM, TOR and their metabolites by LC–MS/MS (screening study); details: TOR 120 mg for up to 6 months
[2] = Excerpt: Written informed consent was obtained from all the participants included in the study. The patient enrolment period for the screening study started on February 1, 2009 and ended on July 31, 2012.
We obtained data on compliance and the grade of hot flush as defined by the Common Terminology Criteria for Adverse Events v3.0.
The p value was not calculated if there were no events.

SMILES: CN(C)CCOc1ccc(/C(=C(/CCCl)c2ccccc2)c2ccccc2)cc1 [TOR, toremifene]
- Concentration on continuing the same dose [1]: remained constant
- Cre elevation All grade, % of patients ([2]; TOR 40 mg): 36.4%
- Cre elevation All grade, patients ([2]; TOR 40 mg): 4
- Cre elevation ≧ G2, % of patients ([2]; TOR 40 mg): 0 (0) %
- Cre elevation ≧ G2, patients ([2]; TOR 40 mg): 0 (0)
- GOT elevation All grade, % of patients ([2]; TOR 40 mg): 0 (0) %
- GOT elevation All grade, patients ([2]; TOR 40 mg): 0 (0)
- GOT elevation ≧ G2, % of patients ([2]; TOR 40 mg): 0 (0) %
- GOT elevation ≧ G2, patients ([2]; TOR 40 mg): 0 (0)
- GPT elevation All grade, % of patients ([2]; TOR 40 mg): 0 (0) %
- GPT elevation All grade, patients ([2]; TOR 40 mg): 0 (0)
- GPT elevation ≧ G2, % of patients ([2]; TOR 40 mg): 0 (0) %
- GPT elevation ≧ G2, patients ([2]; TOR 40 mg): 0 (0)
- Hot flush G0, % of patients ([2]; TOR 40 mg): 100%
- Hot flush G0, patients ([2]; TOR 40 mg): 14
- Hot flush G1, % of patients ([2]; TOR 40 mg): 0 (0) %
- Hot flush G1, patients ([2]; TOR 40 mg): 0 (0)
- Hot flush G2, % of patients ([2]; TOR 40 mg): 0 (0) %
- Hot flush G2, patients ([2]; TOR 40 mg): 0 (0)
- Hyperglycemia All grade, % of patients ([2]; TOR 40 mg): 0 (0) %
- Hyperglycemia All grade, patients ([2]; TOR 40 mg): 0 (0)
- Hyperglycemia ≧ G2, % of patients ([2]; TOR 40 mg): 0 (0) %
- Hyperglycemia ≧ G2, patients ([2]; TOR 40 mg): 0 (0)
- LDH elevation All grade, % of patients ([2]; TOR 40 mg): 0 (0) %
- LDH elevation All grade, patients ([2]; TOR 40 mg): 0 (0)
- LDH elevation ≧ G2, % of patients ([2]; TOR 40 mg): 0 (0) %
- LDH elevation ≧ G2, patients ([2]; TOR 40 mg): 0 (0)
- LDL elevation All grade, % of patients ([2]; TOR 40 mg): 0 (0) %
- LDL elevation All grade, patients ([2]; TOR 40 mg): 0 (0)
- LDL elevation ≧ G2, % of patients ([2]; TOR 40 mg): 0 (0) %
- LDL elevation ≧ G2, patients ([2]; TOR 40 mg): 0 (0)
- Low PLT All grade, % of patients ([2]; TOR 40 mg): 0 (0) %
- Low PLT All grade, patients ([2]; TOR 40 mg): 0 (0)
- Low PLT ≧ G2, % of patients ([2]; TOR 40 mg): 0 (0) %
- Low PLT ≧ G2, patients ([2]; TOR 40 mg): 0 (0)
- Low WBC All grade, % of patients ([2]; TOR 40 mg): 11.1%
- Low WBC All grade, patients ([2]; TOR 40 mg): 1
- Low WBC ≧ G2, % of patients ([2]; TOR 40 mg): 11.1%
- Low WBC ≧ G2, patients ([2]; TOR 40 mg): 1
- T. Bil elevation All grade, % of patients ([2]; TOR 40 mg): 0 (0) %
- T. Bil elevation All grade, patients ([2]; TOR 40 mg): 0 (0)
- T. Bil elevation ≧ G2, % of patients ([2]; TOR 40 mg): 0 (0) %
- T. Bil elevation ≧ G2, patients ([2]; TOR 40 mg): 0 (0)
- TG elevation All grade, % of patients ([2]; TOR 40 mg): 12.5%
- TG elevation All grade, patients ([2]; TOR 40 mg): 1
- TG elevation ≧ G2, % of patients ([2]; TOR 40 mg): 0 (0) %
- TG elevation ≧ G2, patients ([2]; TOR 40 mg): 0 (0)
- Weight, max ([2]; TOR 40 mg): 73.4 kg
- Weight, mean ([2]; TOR 40 mg): 53.2 kg
- Weight, median ([2]; TOR 40 mg): 51.7 kg
- Weight, min ([2]; TOR 40 mg): 45.0 kg
- Cre elevation All grade, % of patients ([2]; TOR 120 mg (1)): 27.3%
- Cre elevation All grade, patients ([2]; TOR 120 mg (1)): 3
- Cre elevation ≧ G2, % of patients ([2]; TOR 120 mg (1)): 0 (0) %
- Cre elevation ≧ G2, patients ([2]; TOR 120 mg (1)): 0 (0)
- GOT elevation All grade, % of patients ([2]; TOR 120 mg (1)): 16.7%
- GOT elevation All grade, patients ([2]; TOR 120 mg (1)): 2
- GOT elevation ≧ G2, % of patients ([2]; TOR 120 mg (1)): 8.3%
- GOT elevation ≧ G2, patients ([2]; TOR 120 mg (1)): 1
- GPT elevation All grade, % of patients ([2]; TOR 120 mg (1)): 8.3%
- GPT elevation All grade, patients ([2]; TOR 120 mg (1)): 1
- GPT elevation ≧ G2, % of patients ([2]; TOR 120 mg (1)): 8.3%
- GPT elevation ≧ G2, patients ([2]; TOR 120 mg (1)): 1
- Hot flush G0, % of patients ([2]; TOR 120 mg (1)): 69.2%
- Hot flush G0, patients ([2]; TOR 120 mg (1)): 9
- Hot flush G1, % of patients ([2]; TOR 120 mg (1)): 15.4%
- Hot flush G1, patients ([2]; TOR 120 mg (1)): 2
- Hot flush G2, % of patients ([2]; TOR 120 mg (1)): 15.4%
- Hot flush G2, patients ([2]; TOR 120 mg (1)): 2
- Hyperglycemia All grade, % of patients ([2]; TOR 120 mg (1)): 0 (0) %
- Hyperglycemia All grade, patients ([2]; TOR 120 mg (1)): 0 (0)
- Hyperglycemia ≧ G2, % of patients ([2]; TOR 120 mg (1)): 0 (0) %
- Hyperglycemia ≧ G2, patients ([2]; TOR 120 mg (1)): 0 (0)
- LDH elevation All grade, % of patients ([2]; TOR 120 mg (1)): 7.1%
- LDH elevation All grade, patients ([2]; TOR 120 mg (1)): 1
- LDH elevation ≧ G2, % of patients ([2]; TOR 120 mg (1)): 7.1%
- LDH elevation ≧ G2, patients ([2]; TOR 120 mg (1)): 1
- LDL elevation All grade, % of patients ([2]; TOR 120 mg (1)): 14.3%
- LDL elevation All grade, patients ([2]; TOR 120 mg (1)): 1
- LDL elevation ≧ G2, % of patients ([2]; TOR 120 mg (1)): 0 (0) %
- LDL elevation ≧ G2, patients ([2]; TOR 120 mg (1)): 0 (0)
- Low PLT All grade, % of patients ([2]; TOR 120 mg (1)): 0 (0) %
- Low PLT All grade, patients ([2]; TOR 120 mg (1)): 0 (0)
- Low PLT ≧ G2, % of patients ([2]; TOR 120 mg (1)): 0 (0) %
- Low PLT ≧ G2, patients ([2]; TOR 120 mg (1)): 0 (0)
- Low WBC All grade, % of patients ([2]; TOR 120 mg (1)): 11.1%
- Low WBC All grade, patients ([2]; TOR 120 mg (1)): 1
